Target: Human DAAO enzyme (Homo sapiens (Human), UniProt P14920)
Assay: In Vitro DAAO Enzyme Assay (Amplex Red detection of H2O2 from D-Serine)
Type: biochemical
Conditions: inhibition of DAAO activity in the presence of 10 mM D-Serine; 60 minutes at 25° C.
Protocol: In Vitro DAAO Enzyme Assay
The functional activity of compounds inhibiting the DAAO enzyme was determined by utilizing the co-product of the catalysis of D-Serine, H2O2, which can be quantitatively measured using the ‘Amplex’ (trade mark) Red (Invitrogen) detection. ‘Amplex’ Red reagent is a colorless substrate that reacts with hydrogen peroxide (H2O2) with a 1:1 stoichiometry to produce highly fluorescent resorufin (excitation/emission maxima=570/585 nm).
The Km of D-Serine was measured for each enzyme batch to maintain consistency; this Km was used in subsequent assays.
On the day of the assay compounds were serially diluted in DMSO before being diluted 1:20 with assay buffer (20 mM Tris ph 7.4). […] Finally 5 μl ‘Amplex’ red reagent (Invitrogen) was added to all wells as per manufacturer's protocol. The plate was incubated for 60 minutes in the dark at 25° C. and the fluorescence in each well was measured in the Envision plate reader.
Concentration response curves were generated using the average of duplicate wells for each data point and analyzed using non-linear regression and four parameter curve fit.

Sequence of Human DAAO enzyme (P14920 whole entry): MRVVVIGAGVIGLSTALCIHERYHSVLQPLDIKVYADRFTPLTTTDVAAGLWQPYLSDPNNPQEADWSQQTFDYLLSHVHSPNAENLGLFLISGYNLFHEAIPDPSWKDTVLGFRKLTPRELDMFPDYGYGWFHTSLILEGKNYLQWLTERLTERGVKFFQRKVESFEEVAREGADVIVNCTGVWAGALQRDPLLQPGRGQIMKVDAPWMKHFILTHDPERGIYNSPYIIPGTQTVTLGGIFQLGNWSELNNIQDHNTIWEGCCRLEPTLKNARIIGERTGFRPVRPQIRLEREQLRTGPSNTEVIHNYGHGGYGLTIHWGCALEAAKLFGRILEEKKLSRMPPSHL

IC50 [nM]	SMILES
11	CCc1cc(O)c(=O)[nH]n1 [Example 1, 6-Ethyl-4-hydroxypyridazin-3(2H)-one]
61	CC(C)CCc1cc(O)c(=O)[nH]n1 [Example 2, 4-Hydroxy-6-(3-methylbutyl)pyridazin-3(2H)-one]
40	O=c1[nH]nc(C2CC2)cc1O [Example 3, 6-Cyclopropyl-4-hydroxypyridazin-3(2H)-one]
4100	O=c1[nH]nc(C2CCOCC2)cc1O [Example 4, 4-Hydroxy-6-(tetrahydro-2H-pyran-4-yl)pyridazin-3(2H)-one]
140	CC(C)Cc1cc(O)c(=O)[nH]n1 [Example 5, 4-Hydroxy-6-(2-methylpropyl)pyridazin-3(2H)-one]
670	O=c1[nH]nc(C2CCCC2)cc1O [Example 6, 6-Cyclopentyl-4-hydroxypyridazin-3(2H)-one]
36	CC(C)c1cc(O)c(=O)[nH]n1 [Example 8, 4-Hydroxy-6-isopropylpyridazin-3(2H)-one]
2500	O=c1[nH]nc(N2CCC2)cc1O [Example 9, 6-(Azetidin-1-yl)-4-hydroxypyridazin-3(2H)-one]
46	CN(C)c1cc(O)c(=O)[nH]n1 [Example 10, 6-(Dimethylamino)-4-hydroxypyridazin-3(2H)-one]
180	CCCN(C)c1cc(O)c(=O)[nH]n1 [Example 11, 4-Hydroxy-6-(methyl(propyl)amino)pyridazin-3(2H)-one]
150	CCN(C)c1cc(O)c(=O)[nH]n1 [Example 12, 6-(Ethyl(methyl)amino)-4-hydroxypyridazin-3(2H)-one]
3600	O=c1[nH]nc(N2CCCCC2)cc1O [Example 13, 4-Hydroxy-6-(piperidin-1-yl)pyridazin-3(2H)-one]
44	CC(C)(C)c1cc(O)c(=O)[nH]n1 [Example 14, 6-tert-Butyl-4-hydroxypyridazin-3(2H)-one]

SMILES	IC50 [nM]
O=c1[nH]nc(C2CCCCC2)cc1O [Example 7, 6-Cyclohexyl-4-hydroxypyridazin-3(2H)-one]	1100

Source: patent publication US9750748B2, “Pyridazinones as DAAO enzyme inhibitors” (TAKEDA PHARMACEUTICAL COMPANY LIMITED, priority 2012, dated 2017)
